Results published in ChEMBL document CHEMBL4507298 (2021).

Experiments:
[1] = target: 5-hydroxytryptamine receptor 1D (Homo sapiens) (UniProt P28221); assay: 5-HT1D CEREP ligand profiling; conditions: Compound concentration 10.0 uM
[2] = target: T1, 5-hydroxytryptamine receptor 2C (Homo sapiens) (UniProt P28335); assay: 5-HT2C (h) (agonist site) CEREP ligand profiling; conditions: Compound concentration 10.0 uM
T1 sequence (whole entry): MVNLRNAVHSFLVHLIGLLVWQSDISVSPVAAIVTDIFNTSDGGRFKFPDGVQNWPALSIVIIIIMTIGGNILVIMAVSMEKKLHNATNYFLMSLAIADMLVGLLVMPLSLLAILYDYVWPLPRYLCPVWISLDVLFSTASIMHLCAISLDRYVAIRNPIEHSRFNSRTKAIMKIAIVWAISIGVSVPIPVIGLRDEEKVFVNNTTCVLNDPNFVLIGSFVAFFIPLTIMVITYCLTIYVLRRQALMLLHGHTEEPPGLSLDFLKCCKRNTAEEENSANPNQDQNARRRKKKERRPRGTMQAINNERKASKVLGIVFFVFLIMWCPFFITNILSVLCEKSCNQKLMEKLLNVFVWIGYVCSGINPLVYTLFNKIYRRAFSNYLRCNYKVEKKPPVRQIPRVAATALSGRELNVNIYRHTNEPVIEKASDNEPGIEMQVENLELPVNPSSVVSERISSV

[3] = target: T2, Alpha-2B adrenergic receptor (Homo sapiens) (UniProt P18089); assay: alpha 2B (h) CEREP ligand profiling; conditions: Compound concentration 10.0 uM
T2 sequence (whole entry): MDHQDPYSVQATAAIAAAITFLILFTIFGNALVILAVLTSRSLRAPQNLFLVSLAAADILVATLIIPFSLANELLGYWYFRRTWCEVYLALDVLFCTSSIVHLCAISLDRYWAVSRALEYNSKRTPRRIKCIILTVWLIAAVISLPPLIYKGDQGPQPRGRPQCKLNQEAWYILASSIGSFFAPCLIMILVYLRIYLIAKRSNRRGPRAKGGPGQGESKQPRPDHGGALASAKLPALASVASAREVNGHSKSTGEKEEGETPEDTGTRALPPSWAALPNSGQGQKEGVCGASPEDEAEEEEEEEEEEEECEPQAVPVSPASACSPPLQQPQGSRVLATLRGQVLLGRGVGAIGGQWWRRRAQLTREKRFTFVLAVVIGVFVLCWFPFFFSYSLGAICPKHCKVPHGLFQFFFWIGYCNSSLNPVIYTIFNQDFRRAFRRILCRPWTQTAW

[4] = target: T3, Alpha-2C adrenergic receptor (Homo sapiens) (UniProt P18825); assay: alpha 2C (h) CEREP ligand profiling; conditions: Compound concentration 10.0 uM
T3 sequence (whole entry): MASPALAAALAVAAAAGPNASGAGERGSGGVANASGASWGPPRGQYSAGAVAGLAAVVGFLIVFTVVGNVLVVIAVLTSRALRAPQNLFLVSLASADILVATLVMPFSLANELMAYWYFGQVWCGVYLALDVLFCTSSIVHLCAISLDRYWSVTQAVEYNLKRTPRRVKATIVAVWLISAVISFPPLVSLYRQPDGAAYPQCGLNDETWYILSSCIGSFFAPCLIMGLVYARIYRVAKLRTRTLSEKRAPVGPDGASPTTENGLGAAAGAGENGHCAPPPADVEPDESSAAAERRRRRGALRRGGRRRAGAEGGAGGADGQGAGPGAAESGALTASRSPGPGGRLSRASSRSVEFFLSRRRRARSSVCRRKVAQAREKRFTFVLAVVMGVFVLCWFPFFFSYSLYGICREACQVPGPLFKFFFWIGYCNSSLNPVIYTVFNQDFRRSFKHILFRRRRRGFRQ

[5] = target: Beta-3 adrenergic receptor (Homo sapiens) (UniProt P13945); assay: beta 3 (h) CEREP ligand profiling; conditions: Compound concentration 10.0 uM
Chain of Beta-3 adrenergic receptor (Homo sapiens) (P13945 whole entry, looked up): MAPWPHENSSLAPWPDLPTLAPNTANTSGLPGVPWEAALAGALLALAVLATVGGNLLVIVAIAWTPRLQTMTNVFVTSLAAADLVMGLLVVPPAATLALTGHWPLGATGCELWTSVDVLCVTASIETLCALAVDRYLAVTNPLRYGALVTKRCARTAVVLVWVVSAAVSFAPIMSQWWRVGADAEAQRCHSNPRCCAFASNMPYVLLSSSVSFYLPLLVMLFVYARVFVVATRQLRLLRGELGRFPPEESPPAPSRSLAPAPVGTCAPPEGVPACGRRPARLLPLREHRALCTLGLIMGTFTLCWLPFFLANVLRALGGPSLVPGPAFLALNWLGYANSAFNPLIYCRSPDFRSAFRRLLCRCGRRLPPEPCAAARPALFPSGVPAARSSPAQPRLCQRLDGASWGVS

[6] = target: Voltage-dependent N-type calcium channel subunit alpha-1B (Homo sapiens) (UniProt Q00975); assay: Ca2+ channel (N) CEREP ligand profiling; conditions: Compound concentration 10.0 uM
[7] = target: Cholecystokinin receptor type A (Homo sapiens) (UniProt P32238); assay: CCKA (h) (CCK1) CEREP ligand profiling; conditions: Compound concentration 10.0 uM
Chain of Cholecystokinin receptor type A (Homo sapiens) (P32238 whole entry): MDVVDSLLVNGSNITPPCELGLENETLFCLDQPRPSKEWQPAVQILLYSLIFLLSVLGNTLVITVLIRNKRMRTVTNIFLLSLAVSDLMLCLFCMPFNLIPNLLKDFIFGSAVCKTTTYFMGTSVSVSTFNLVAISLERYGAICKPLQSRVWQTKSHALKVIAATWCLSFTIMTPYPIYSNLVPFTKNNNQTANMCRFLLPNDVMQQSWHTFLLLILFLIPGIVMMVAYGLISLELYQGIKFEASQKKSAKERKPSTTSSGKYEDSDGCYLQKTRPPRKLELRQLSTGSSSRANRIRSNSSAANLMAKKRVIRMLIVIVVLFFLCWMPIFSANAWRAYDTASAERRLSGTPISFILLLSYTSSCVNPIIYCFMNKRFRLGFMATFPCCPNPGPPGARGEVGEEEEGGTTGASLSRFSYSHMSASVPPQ

[8] = target: Gastrin/cholecystokinin type B receptor (Homo sapiens) (UniProt P32239); assay: CCKB (h) (CCK2) CEREP ligand profiling; conditions: Compound concentration 10.0 uM
[9] = target: D(1A) dopamine receptor (Homo sapiens, UniProt P21728); assay: D1 (h) CEREP ligand profiling; conditions: Compound concentration 10.0 uM
[10] = target: Na+ channel (site 2), sodium channel alpha subunit (Homo sapiens, UniProt P35498+P35499+Q01118+Q14524+Q15858+Q99250+Q9NY46+Q9UI33+Q9UQD0+Q9Y5Y9); assay: Na+ channel (site 2) CEREP ligand profiling; type: protein assay; conditions: compound concentration 10 uM
[11] = target: cGMP-dependent 3',5'-cyclic phosphodiesterase (Homo sapiens) (UniProt O00408); assay: PDE2 (h) CEREP ligand profiling; conditions: Compound concentration 10.0 uM
[12] = target: Phosphodiesterase 4 (Homo sapiens) (UniProt P27815+Q08499+Q07343+Q08493); assay: PDE4 (h) CEREP ligand profiling; type: protein assay; conditions: Compound concentration 10.0 uM
[13] = target: Mitogen-activated protein kinase kinase kinase 6 (Homo sapiens) (UniProt O95382); conditions: Compound concentration 1000.0 nM
[14] = target: Calcium/calmodulin-dependent protein kinase kinase 2 (Homo sapiens) (UniProt Q96RR4); conditions: Compound concentration 1000.0 nM
[15] = target: Mitogen-activated protein kinase kinase kinase 12 (Homo sapiens) (UniProt Q12852); conditions: Compound concentration 1000.0 nM
[16] = target: Tyrosine-protein kinase JAK1 (Homo sapiens) (UniProt P23458); conditions: Compound concentration 1000.0 nM
[17] = target: MAP/microtubule affinity-regulating kinase 3 (Homo sapiens) (UniProt P27448); conditions: Compound concentration 1000.0 nM
[18] = target: Myosin light chain kinase, smooth muscle (Homo sapiens) (UniProt Q15746); conditions: Compound concentration 1000.0 nM
[19] = target: Serine/threonine-protein kinase SIK3 (Homo sapiens) (UniProt Q9Y2K2); conditions: Compound concentration 1000.0 nM
[20] = tested on: Proto-oncogene tyrosine-protein kinase receptor Ret (Homo sapiens), P07949 [V804L]; conditions: Compound concentration 1000.0 nM
Chain of Proto-oncogene tyrosine-protein kinase receptor Ret (Homo sapiens), P07949 [V804L] (P07949 whole entry V804L): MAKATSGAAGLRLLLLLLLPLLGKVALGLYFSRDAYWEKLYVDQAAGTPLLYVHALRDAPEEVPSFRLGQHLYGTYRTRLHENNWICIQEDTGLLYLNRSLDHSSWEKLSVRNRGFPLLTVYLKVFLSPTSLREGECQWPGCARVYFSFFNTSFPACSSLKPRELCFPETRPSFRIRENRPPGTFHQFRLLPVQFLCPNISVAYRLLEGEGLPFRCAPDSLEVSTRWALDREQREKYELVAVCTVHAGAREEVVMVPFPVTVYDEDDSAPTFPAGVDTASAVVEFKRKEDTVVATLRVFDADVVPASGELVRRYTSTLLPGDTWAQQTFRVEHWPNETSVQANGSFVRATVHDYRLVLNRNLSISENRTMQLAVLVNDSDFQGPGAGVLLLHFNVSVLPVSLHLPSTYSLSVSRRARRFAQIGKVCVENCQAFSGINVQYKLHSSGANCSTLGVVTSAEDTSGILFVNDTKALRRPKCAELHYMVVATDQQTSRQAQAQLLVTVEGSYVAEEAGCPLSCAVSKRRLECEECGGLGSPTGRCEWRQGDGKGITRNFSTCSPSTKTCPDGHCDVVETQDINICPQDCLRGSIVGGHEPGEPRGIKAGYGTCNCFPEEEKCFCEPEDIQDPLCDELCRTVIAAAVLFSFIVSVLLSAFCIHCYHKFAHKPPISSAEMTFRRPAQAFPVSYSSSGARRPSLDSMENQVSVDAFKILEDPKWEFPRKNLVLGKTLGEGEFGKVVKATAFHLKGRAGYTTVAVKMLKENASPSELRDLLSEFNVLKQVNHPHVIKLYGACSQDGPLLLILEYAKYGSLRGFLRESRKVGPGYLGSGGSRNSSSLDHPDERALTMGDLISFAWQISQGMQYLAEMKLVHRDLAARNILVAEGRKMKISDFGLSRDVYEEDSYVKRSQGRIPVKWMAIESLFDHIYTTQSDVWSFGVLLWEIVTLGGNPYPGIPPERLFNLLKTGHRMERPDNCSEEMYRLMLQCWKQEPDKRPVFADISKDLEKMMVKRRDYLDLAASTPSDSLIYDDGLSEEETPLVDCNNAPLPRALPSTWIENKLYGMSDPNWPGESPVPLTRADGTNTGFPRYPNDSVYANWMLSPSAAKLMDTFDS

[21] = target: Ribosomal protein S6 kinase alpha-6 (Homo sapiens) (UniProt Q9UK32); conditions: Compound concentration 1000.0 nM
[22] = target: Serine/threonine-protein kinase Sgk2 (Homo sapiens) (UniProt Q9HBY8); conditions: Compound concentration 1000.0 nM
[23] = target: Serine/threonine-protein kinase 16 (Homo sapiens) (UniProt O75716); conditions: Compound concentration 1000.0 nM
Chain of Serine/threonine-protein kinase 16 (Homo sapiens) (O75716 whole entry): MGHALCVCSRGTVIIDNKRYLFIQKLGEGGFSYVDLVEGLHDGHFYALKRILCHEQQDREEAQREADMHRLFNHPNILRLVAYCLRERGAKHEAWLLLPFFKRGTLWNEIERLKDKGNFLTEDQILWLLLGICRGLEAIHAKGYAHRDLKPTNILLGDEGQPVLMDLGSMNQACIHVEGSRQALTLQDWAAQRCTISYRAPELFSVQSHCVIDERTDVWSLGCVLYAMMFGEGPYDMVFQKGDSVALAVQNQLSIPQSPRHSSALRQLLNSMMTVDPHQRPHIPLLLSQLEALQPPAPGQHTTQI

[24] = target: Tyrosine-protein kinase SYK (Homo sapiens) (UniProt P43405); conditions: Compound concentration 1000.0 nM
[25] = target: TRAF2 and NCK-interacting protein kinase (Homo sapiens) (UniProt Q9UKE5); conditions: Compound concentration 1000.0 nM
Chain of TRAF2 and NCK-interacting protein kinase (Homo sapiens) (Q9UKE5 whole entry, looked up): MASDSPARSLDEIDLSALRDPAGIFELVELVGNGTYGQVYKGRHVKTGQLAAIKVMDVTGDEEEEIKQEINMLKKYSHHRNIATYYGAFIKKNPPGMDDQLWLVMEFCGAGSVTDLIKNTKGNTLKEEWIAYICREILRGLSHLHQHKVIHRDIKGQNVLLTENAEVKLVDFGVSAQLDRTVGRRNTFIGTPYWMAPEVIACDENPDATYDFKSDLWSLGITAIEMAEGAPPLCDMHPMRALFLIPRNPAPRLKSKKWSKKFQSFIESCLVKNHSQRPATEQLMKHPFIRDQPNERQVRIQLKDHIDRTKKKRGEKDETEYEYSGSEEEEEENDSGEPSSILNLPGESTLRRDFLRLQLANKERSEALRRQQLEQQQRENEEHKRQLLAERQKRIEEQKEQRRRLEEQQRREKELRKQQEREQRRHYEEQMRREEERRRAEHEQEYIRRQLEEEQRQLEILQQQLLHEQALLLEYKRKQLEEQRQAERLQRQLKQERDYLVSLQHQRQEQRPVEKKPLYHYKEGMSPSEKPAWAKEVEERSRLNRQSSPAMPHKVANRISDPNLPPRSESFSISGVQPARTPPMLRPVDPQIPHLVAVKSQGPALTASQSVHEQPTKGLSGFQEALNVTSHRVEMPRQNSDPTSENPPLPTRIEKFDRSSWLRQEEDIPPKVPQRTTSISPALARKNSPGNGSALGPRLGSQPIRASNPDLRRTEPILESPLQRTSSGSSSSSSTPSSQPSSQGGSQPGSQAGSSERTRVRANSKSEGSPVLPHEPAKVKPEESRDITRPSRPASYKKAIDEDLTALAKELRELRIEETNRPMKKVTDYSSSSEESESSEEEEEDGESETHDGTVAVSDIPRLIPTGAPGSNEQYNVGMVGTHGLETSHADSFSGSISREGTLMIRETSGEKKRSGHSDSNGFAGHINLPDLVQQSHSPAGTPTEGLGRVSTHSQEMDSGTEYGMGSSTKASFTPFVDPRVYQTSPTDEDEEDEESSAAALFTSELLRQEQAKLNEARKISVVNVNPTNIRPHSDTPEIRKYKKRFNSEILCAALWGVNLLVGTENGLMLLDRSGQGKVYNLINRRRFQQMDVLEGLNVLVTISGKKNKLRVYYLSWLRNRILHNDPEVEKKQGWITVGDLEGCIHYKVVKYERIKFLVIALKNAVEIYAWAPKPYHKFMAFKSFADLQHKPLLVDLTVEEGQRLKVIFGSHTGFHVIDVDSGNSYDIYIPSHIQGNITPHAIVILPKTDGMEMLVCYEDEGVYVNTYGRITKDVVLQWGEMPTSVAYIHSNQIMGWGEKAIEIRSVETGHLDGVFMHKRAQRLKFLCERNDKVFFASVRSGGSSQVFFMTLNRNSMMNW

[26] = target: NT-3 growth factor receptor (Homo sapiens) (UniProt Q16288); conditions: Compound concentration 1000.0 nM
Chain of NT-3 growth factor receptor (Homo sapiens) (Q16288 32-839 limits assumed): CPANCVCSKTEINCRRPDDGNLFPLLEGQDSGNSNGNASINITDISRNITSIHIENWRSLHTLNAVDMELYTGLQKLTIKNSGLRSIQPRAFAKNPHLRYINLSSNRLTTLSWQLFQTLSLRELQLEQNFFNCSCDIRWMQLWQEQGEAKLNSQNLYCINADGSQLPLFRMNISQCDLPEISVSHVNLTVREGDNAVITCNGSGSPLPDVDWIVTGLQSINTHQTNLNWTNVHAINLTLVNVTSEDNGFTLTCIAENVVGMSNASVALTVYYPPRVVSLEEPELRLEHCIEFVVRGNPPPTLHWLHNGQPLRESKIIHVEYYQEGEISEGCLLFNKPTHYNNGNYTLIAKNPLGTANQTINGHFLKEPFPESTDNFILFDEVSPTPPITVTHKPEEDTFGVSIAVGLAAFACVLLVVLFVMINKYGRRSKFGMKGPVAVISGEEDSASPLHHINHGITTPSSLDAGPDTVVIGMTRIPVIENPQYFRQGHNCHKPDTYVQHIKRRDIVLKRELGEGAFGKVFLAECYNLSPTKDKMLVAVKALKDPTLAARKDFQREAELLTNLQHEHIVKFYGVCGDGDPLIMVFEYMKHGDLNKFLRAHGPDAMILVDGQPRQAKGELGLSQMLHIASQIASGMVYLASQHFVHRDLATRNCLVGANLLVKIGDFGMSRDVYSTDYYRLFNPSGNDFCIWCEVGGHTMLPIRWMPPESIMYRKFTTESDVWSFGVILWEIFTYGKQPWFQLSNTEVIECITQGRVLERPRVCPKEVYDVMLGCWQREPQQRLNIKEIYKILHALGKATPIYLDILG

Chain of 5-hydroxytryptamine receptor 1D (Homo sapiens) (P28221 whole entry): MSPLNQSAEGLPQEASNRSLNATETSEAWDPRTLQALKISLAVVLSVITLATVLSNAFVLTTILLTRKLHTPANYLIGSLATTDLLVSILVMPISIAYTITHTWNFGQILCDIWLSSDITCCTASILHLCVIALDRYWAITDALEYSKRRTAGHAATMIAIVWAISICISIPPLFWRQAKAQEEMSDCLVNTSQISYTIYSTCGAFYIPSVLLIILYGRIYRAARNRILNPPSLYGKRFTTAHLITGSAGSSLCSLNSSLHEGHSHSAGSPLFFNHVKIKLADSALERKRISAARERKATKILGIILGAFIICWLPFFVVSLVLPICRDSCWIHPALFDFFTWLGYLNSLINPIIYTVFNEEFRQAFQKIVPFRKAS

COc1ccc2cc(OCC3(C(=O)O)CN(C(=O)c4ccc(F)cc4)C3)ccc2c1 [PF-04418948]
inactive: inhibition [1] -10% | inhibition [2] -6% | inhibition [3] 1% | inhibition [4] 4% | inhibition [5] 3% | inhibition [6] -7% | inhibition [7] 29% | inhibition [8] -8% | inhibition [9] 5% | inhibition [11] 5% | inhibition [12] 8% | residual activity [13] 95% | residual activity [14] 94% | residual activity [15] 97% | residual activity [16] 96% | residual activity [17] 94% | residual activity [18] 84% | residual activity [19] 72% | residual activity [20] 78% | residual activity [21] 78% | residual activity [22] 87% | residual activity [23] 88% | residual activity [24] 64% | residual activity [25] 61% | residual activity [26] 98%
9% (not active): inhibition at 10 µM [10]
